Reference: the supplement of paper PMC10307832

Columns and labels:
Assay in all cases: relative viability (nuclei count vs DMSO), 5 days (fraction); higher = more cells survive
ALW-II-49-7 + Pemetrexed = compound: Cc1ccc(C(=O)Nc2cccc(C(F)(F)F)c2)cc1Nc1cncc(C(N)=O)c1 [ALW-II-49-7] + Nc1nc2[nH]cc(CCc3ccc(C(=O)N[C@@H](CCC(=O)O)C(=O)O)cc3)c2c(=O)[nH]1 [Pemetrexed] (partner 0.2 µM)
Outline: (§1)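 Lung cancer cell lines in 1536-well plates were dosed by pin tool the day after seeding, either with one drug alone or with a fixed anchor-drug dose plus five library-drug doses (not always all listed) in √10 steps. After 5 days, cells were fixed and their nuclei stained in one step (final 0.05% Triton X-100, 1% formaldehyde, 1 ug/ml Hoechst), then counted on 4× images. Relative viability is the nuclei count in treated wells divided by that in vehicle wells. Values are medians of duplicate plates.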

Dasatinib + Decitabine = compound: Cc1nc(Nc2ncc(C(=O)Nc3c(C)cccc3Cl)s2)cc(N2CCN(CCO)CC2)n1 [Dasatinib] + Nc1ncn([C@H]2C[C@H](O)[C@@H](CO)O2)c(=O)n1 [Decitabine] (partner 2 µM)
Outline: as §1

ALW-II-49-7 + Phenformin = compound: Cc1ccc(C(=O)Nc2cccc(C(F)(F)F)c2)cc1Nc1cncc(C(N)=O)c1 [ALW-II-49-7] + N=C(N)NC(=N)NCCc1ccccc1 [Phenformin] (partner 250 µM)
Outline: as §1

ALW-II-49-7 + Trametinib = compound: Cc1ccc(C(=O)Nc2cccc(C(F)(F)F)c2)cc1Nc1cncc(C(N)=O)c1 [ALW-II-49-7] + CC(=O)Nc1cccc(-n2c(=O)n(C3CC3)c(=O)c3c(Nc4ccc(I)cc4F)n(C)c(=O)c(C)c32)c1 [Trametinib] (partner 0.02 µM)
Outline: as §1

| Cell Line | relative viability (ALW-II-49-7 + Pemetrexed; first compound 0.08 µM) | relative viability (ALW-II-49-7 + Pemetrexed; first compound 0.253 µM) | relative viability (ALW-II-49-7 + Pemetrexed; first compound 0.8 µM) | relative viability (ALW-II-49-7 + Pemetrexed; first compound 2.53 µM) | relative viability (ALW-II-49-7 + Pemetrexed; first compound 8 µM) | relative viability (Dasatinib + Decitabine; first compound 0.005 µM) | relative viability (Dasatinib + Decitabine; first compound 0.01581 µM) | relative viability (Dasatinib + Decitabine; first compound 0.05 µM) | relative viability (Dasatinib + Decitabine; first compound 0.1581 µM) | relative viability (Dasatinib + Decitabine; first compound 0.5 µM) | relative viability (ALW-II-49-7 + Phenformin; first compound 0.08 µM) | relative viability (ALW-II-49-7 + Phenformin; first compound 0.253 µM) | relative viability (ALW-II-49-7 + Phenformin; first compound 0.8 µM) | relative viability (ALW-II-49-7 + Phenformin; first compound 2.53 µM) | relative viability (ALW-II-49-7 + Phenformin; first compound 8 µM) | relative viability (ALW-II-49-7 + Trametinib; first compound 0.08 µM) | relative viability (ALW-II-49-7 + Trametinib; first compound 0.253 µM) | relative viability (ALW-II-49-7 + Trametinib; first compound 0.8 µM) | relative viability (ALW-II-49-7 + Trametinib; first compound 2.53 µM) | relative viability (ALW-II-49-7 + Trametinib; first compound 8 µM) |
| --- | --- | --- | --- | --- | --- | --- | --- | --- | --- | --- | --- | --- | --- | --- | --- | --- | --- | --- | --- | --- |
| NCI-H838 | 0.237 | 0.272 | 0.243 | 0.258 | 0.25 | 0.45 | 0.422 | 0.39 | 0.377 | 0.3 | 0.412 | 0.45 | 0.628 | 0.626 | 0.442 | 0.631 | 0.531 | 0.433 | 0.49 | 0.453 |
| NCI-H520 | 0.655 | 0.673 | 0.724 | 0.666 | 0.558 | 0.524 | 0.38 | 0.266 | 0.177 | 0.175 | 0.57 | 0.604 | 0.624 | 0.681 | 0.562 | 0.62 | 0.661 | 0.53 | 0.552 | 0.519 |
| NCI-H2347 | 0.438 | 0.441 | 0.417 | 0.509 | 0.377 | 0.562 | 0.538 | 0.459 | 0.322 | 0.265 | 0.455 | 0.334 | 0.329 | 0.26 | 0.297 | 0.326 | 0.299 | 0.252 | 0.297 | 0.28 |
| NCI-H441 | 0.27 | 0.25 | 0.26 | 0.234 | 0.211 | 0.276 | 0.232 | 0.272 | 0.202 | 0.19 | 0.979 | 0.682 | 0.817 | 0.928 | 0.67 | 0.41 | 0.494 | 0.381 | 0.69 | 0.443 |
